In publication PMC6585621 (Clinical Pharmacology and Therapeutics, 2018):

Tests used:
[1] = cited from earlier work
[2] = Pharmacokinetics of clopidogrel and its metabolites with and without ritonavir; type: in vivo, human; settings: for C max / AUC0‐4h / AUC0‐∞ / t ½ / t max: after clopidogrel 300 mg oral; for C max / AUC0‐4h / AUC0‐∞ / t ½ / Clopidogrel active metabolite: clopidogrel AUC0‐∞ ratio: geometric mean (geometric CV); for t max: median (range)
[3] = clopidogrel and ritonavir phase

COC(=O)[C@H](c1ccccc1Cl)N1CC[C@@H](S)/C(=C\C(=O)O)C1 [Clopidogrel active metabolite]
decrease of AUC by ketoconazole [1]: 22–29%
C max ([2]; clopidogrel and ritonavir phase (ritonavir 100 mg twice daily)): 6.77 (140) ng/mL
AUC0‐4h [2, 3]: 9.16 (150) ng·h/mL
AUC0‐∞ [2, 3]: 14.9 (170) ng·h/mL
t ½ [2, 3]: 0.89 (90) h
t max [2, 3]: 0.92 (0.92–1.5) h
AUC0‐4h ([2]; clopidogrel phase): 18.7 (77) ng·h/mL
AUC0‐∞ ([2]; clopidogrel phase): 19.3 (79) ng·h/mL
C max ([2]; clopidogrel phase): 13.0 (72) ng/mL
t ½ ([2]; clopidogrel phase): 1.05 (58) h
t max ([2]; clopidogrel phase): 0.92 (0.92–1.5) h
Clopidogrel active metabolite: clopidogrel AUC0‐∞ ratio [2, 3]: 1.83 (200)
Clopidogrel active metabolite: clopidogrel AUC0‐∞ ratio ([2]; clopidogrel phase): 1.79 (110)
AUC0‐4h in clopidogrel–ritonavir phase as % of that in the clopidogrel phase ([2]; geometric mean): 49%
C max in clopidogrel–ritonavir phase as % of that in the clopidogrel phase ([2]; geometric mean): 52%
AUC0‐4h, clopidogrel and ritonavir phase to clopidogrel phase ratio ([2]; geometric mean ratio (90% CI)): 0.49 (0.39–0.61); P = 0.0001
AUC0‐∞, clopidogrel and ritonavir phase to clopidogrel phase ratio ([2]; geometric mean ratio (90% CI)): 0.77 (0.59–1.00)
C max, clopidogrel and ritonavir phase to clopidogrel phase ratio ([2]; geometric mean ratio (90% CI)): 0.52 (0.41–0.65); P = 0.0003
Clopidogrel active metabolite: clopidogrel AUC0‐∞ ratio, clopidogrel and ritonavir phase to clopidogrel phase ratio ([2]; geometric mean ratio (90% CI)): 1.03 (0.53–1.97)
t ½, clopidogrel and ritonavir phase to clopidogrel phase ratio ([2]; geometric mean ratio (90% CI)): 0.85 (0.66–1.08)
